Laboratory results: paper PMC5298231, “The Malaria Parasite's Lactate Transporter PfFNT Is the Target of Antiplasmodial Compounds Identified in Whole Cell Phenotypic Screens” (PLoS Pathogens, 2017)
Like-named read-outs stand apart in the source and are kept apart here.

Tested on: erythrocytes infected with 3D7 trophozoites
Type: cell-based, Plasmodium falciparum

COc1ccc2c(c1)OC(O)(C(F)(F)C(F)(F)F)CC2=O (stereo not shown) [MMV007839]
Intracellular NADH level, treated vs untreated (6 μM): decreased
Intracellular orotate level, treated vs untreated (6 μM): decreased
Intracellular orotidine-5-phosphate level, treated vs untreated (6 μM): decreased
Intracellular pyruvate level, treated vs untreated (6 μM): significant elevation
Intracellular sn-glycerol-3-phosphate level, treated vs untreated (6 μM): significant elevation
Increase in lactate abundance in treated relative to untreated infected erythrocytes (6 μM, at each time point (1 h, 3 h, 6 h)): 6 fold
1-3 (2-3)-Bisphopshateglycerate, Average (1hr): 0.8283
2-Hydroxyglutarate, Average (1hr): -0.2432
2-Ketoglutarate, Average (1hr): -0.436
3-Phoshoglycerate, Average (1hr): 0.004248
3-Phospho-serine, Average (1hr): -0.2778
4-Aminobutanoate, Average (1hr): 1.193
5-Phosphoribosyl-Pyrophosphate, Average (1hr): 0.3507
6-Phosphogluconate, Average (1hr): -0.04985
ADP, Average (1hr): -0.09347
AMP, Average (1hr): 0.1805
ATLS, Average (1hr): 0.06136
ATP, Average (1hr): -0.05715
Acetyl-CoA, Average (1hr): -0.4647
Acetyl-L-alanine, Average (1hr): 0.1907
Adenine, Average (1hr): -0.6208
Arginine, Average (1hr): 0.574
Asparagine, Average (1hr): 0.04802
Aspartate, Average (1hr): 0.001665
CDP, Average (1hr): -0.01089
CDP-ethanolamine, Average (1hr): 0.2765
CMP, Average (1hr): 0.1684
CTP, Average (1hr): -0.2804
Cholesteryl sulfate, Average (1hr): -0.2972
Citrate, Average (1hr): -0.1229
CoA, Average (1hr): -0.4384
Cyclic AMP, Average (1hr): -0.8135
Cytidine, Average (1hr): -0.7749
DALT, Average (1hr): -0.5028
DEVG, Average (1hr): 0.001555
DGLA, Average (1hr): -0.4525
DLS, Average (1hr): -0.423
Deoxycytidine, Average (1hr): 1.92
Dihydroorotate, Average (1hr): -0.5278
ESFG, Average (1hr): 0.4045
EVGG, Average (1hr): 0.01776
Erythrose 4-Phosphate, Average (1hr): -0.3514
FAD, Average (1hr): -0.08791
FMN, Average (1hr): -0.2425
Farnesyl diphosphate, Average (1hr): -0.0002912
Folate, Average (1hr): -0.2316
Fructose-1-6-Bisphosphate, Average (1hr): 1.122
Fructose-6-Phosphate, Average (1hr): 0.08818
GDP, Average (1hr): -0.6846
GDP-mannose, Average (1hr): 0.01571
GMP, Average (1hr): -1.125
GTP, Average (1hr): -0.5732
Geranylgeranyl pyrophosphate, Average (1hr): -0.5786
Glucono-1-4-Lactone, Average (1hr): 1.593
Glucose-6-Phosphate, Average (1hr): -0.1863
Glutamate, Average (1hr): 0.1005
Glutamine, Average (1hr): 0.7703
Glutathione Disulfide, Average (1hr): 0.1943
Glutathione, Average (1hr): -0.1919
Glyceraldehyde 3-Phosphate, Average (1hr): -0.7606
Glycerone Phosphate, Average (1hr): 0.5926
HLD, Average (1hr): -0.3486
HVDD, Average (1hr): -0.6691
Histidine, Average (1hr): 0.5758
Homoserine, Average (1hr): 0.3097
Hydroxy-L-proline, Average (1hr): 0.2443
Hypoxanthine, Average (1hr): 0.3704
IDP, Average (1hr): -0.1758
IMP, Average (1hr): -0.02277
Inosine, Average (1hr): 0.5137
Isoleucine, Average (1hr): 0.3056
LD, Average (1hr): 0.3825
Lactate, Average (1hr): 2.358
Leucine, Average (1hr): 0.1553
Lysine, Average (1hr): 1.68
Malate, Average (1hr): 0.1358
Mannitol, Average (1hr): 0.0108
Methionine, Average (1hr): 0.2615
Myristic acid, Average (1hr): 0.2261
N-Acetyl-glutamate, Average (1hr): -0.007377
N-Carbamoyl-L-Aspartate, Average (1hr): -1.378
NAD+, Average (1hr): 0.03204
NADH, Average (1hr): -1.36
NADP+, Average (1hr): -0.2617
Ornithine, Average (1hr): 0.2172
Orotate, Average (1hr): -1.216
Orotidine 5-Phosphate, Average (1hr): -1.5
Orotidine, Average (1hr): -0.4366
PAEF, Average (1hr): -0.4364
PD, Average (1hr): 0.2765
PDAV, Average (1hr): 0.344
PE, Average (1hr): 1.21
PEE, Average (1hr): 0.2418
PHF, Average (1hr): 1.069
PPVQ, Average (1hr): 0.02129
PVNF, Average (1hr): -0.3384
PVQ, Average (1hr): 0.8749
PVQA, Average (1hr): -0.7385
Pantothenate, Average (1hr): -0.01312
Phenylalanine, Average (1hr): 0.1979
Phosphoenolpyruvate, Average (1hr): 0.299
Pipecolate, Average (1hr): 0.4539
Proline, Average (1hr): 0.1646
Pyridoxine, Average (1hr): 0.1656
Pyruvate, Average (1hr): 1.42
Ribose-5-Phosphate, Average (1hr): 0.9115
S-Adenosyl-L-homocysteine, Average (1hr): -0.1282
SDGLA, Average (1hr): -0.148
SFGD, Average (1hr): -0.0354
Sedoheptulose-1/7-Phosphate, Average (1hr): 0.1578
Serine, Average (1hr): 0.004434
Succinate Semialdehyde, Average (1hr): -0.3802
Succinate, Average (1hr): 0.4975
TNVK, Average (1hr): -0.9736
Threonine, Average (1hr): 0.4202
Tryptophan, Average (1hr): 0.09509
Tyrosine, Average (1hr): 0.1697
UDP, Average (1hr): -0.1565
UDP-N-acetyl-D-glucosamine, Average (1hr): 0.0845
UDP-glucose, Average (1hr): -0.08513
UMP, Average (1hr): -0.3602
Uracil, Average (1hr): -0.4869
Valine, Average (1hr): 0.1364
Xanthine, Average (1hr): 0.3309
dADP, Average (1hr): -0.3244
dATP, Average (1hr): 0.05147
dCDP, Average (1hr): 0.3024
dGMP, Average (1hr): 0.08489
dTMP, Average (1hr): -0.02247
dTTP, Average (1hr): 0.2046
dUMP, Average (1hr): 1.26
myo-Inositol, Average (1hr): -0.07002
sn-Glycerol 3-Phosphate, Average (1hr): 1.379
sn-glycero-3-Phospho-1-inositol, Average (1hr): -0.128
1-3 (2-3)-Bisphopshateglycerate, Average (3hr): 0.8355
2-Hydroxyglutarate, Average (3hr): -0.6103
2-Ketoglutarate, Average (3hr): -0.8232
3-Phoshoglycerate, Average (3hr): 0.07426
3-Phospho-serine, Average (3hr): -0.4035
4-Aminobutanoate, Average (3hr): 0.8488
5-Phosphoribosyl-Pyrophosphate, Average (3hr): 0.5077
6-Phosphogluconate, Average (3hr): -0.2282
ADP, Average (3hr): -0.7166
AMP, Average (3hr): -0.5704
ATLS, Average (3hr): -0.2347
ATP, Average (3hr): -0.2177
Acetyl-CoA, Average (3hr): -0.7235
Acetyl-L-alanine, Average (3hr): -0.3599
Adenine, Average (3hr): -0.8446
Arginine, Average (3hr): 0.2396
Asparagine, Average (3hr): -0.1753
Aspartate, Average (3hr): -0.3736
CDP, Average (3hr): -0.5752
CDP-ethanolamine, Average (3hr): 0.02366
CMP, Average (3hr): -0.08882
CTP, Average (3hr): -0.3119
Cholesteryl sulfate, Average (3hr): -0.1335
Citrate, Average (3hr): -0.1028
CoA, Average (3hr): -0.556
Cyclic AMP, Average (3hr): -0.7854
Cytidine, Average (3hr): -0.2914
DALT, Average (3hr): -0.8981
DEVG, Average (3hr): -0.08263
DGLA, Average (3hr): -0.7349
DLS, Average (3hr): -0.6175
Deoxycytidine, Average (3hr): 1.594
Dihydroorotate, Average (3hr): -1.064
ESFG, Average (3hr): -0.07747
EVGG, Average (3hr): -0.1694
Erythrose 4-Phosphate, Average (3hr): -0.2579
FAD, Average (3hr): -0.4239
FMN, Average (3hr): -0.4985
Farnesyl diphosphate, Average (3hr): -0.04123
Folate, Average (3hr): -0.3602
Fructose-1-6-Bisphosphate, Average (3hr): 1.146
Fructose-6-Phosphate, Average (3hr): 0.05598
GDP, Average (3hr): -1.202
GDP-mannose, Average (3hr): -0.4414
GMP, Average (3hr): -1.665
GTP, Average (3hr): -0.7051
Geranylgeranyl pyrophosphate, Average (3hr): -0.6827
Glucono-1-4-Lactone, Average (3hr): 1.992
Glucose-6-Phosphate, Average (3hr): -0.3489
Glutamate, Average (3hr): -0.07518
Glutamine, Average (3hr): 0.8027
Glutathione Disulfide, Average (3hr): -0.1266
Glutathione, Average (3hr): -0.02749
Glyceraldehyde 3-Phosphate, Average (3hr): -0.5897
Glycerone Phosphate, Average (3hr): 0.4029
HLD, Average (3hr): -0.9223
HVDD, Average (3hr): -1.392
Histidine, Average (3hr): 0.6908
Homoserine, Average (3hr): 0.249
Hydroxy-L-proline, Average (3hr): 0.1081
Hypoxanthine, Average (3hr): 0.2683
IDP, Average (3hr): 0.1036
IMP, Average (3hr): -0.04113
Inosine, Average (3hr): 0.2492
Isoleucine, Average (3hr): 0.01345
LD, Average (3hr): 0.008648
Lactate, Average (3hr): 2.632
Leucine, Average (3hr): -0.1293
Lysine, Average (3hr): 0.8307
Malate, Average (3hr): -0.2233
Mannitol, Average (3hr): -0.2308
Methionine, Average (3hr): -0.1652
Myristic acid, Average (3hr): -0.3456
N-Acetyl-glutamate, Average (3hr): -0.8123
N-Carbamoyl-L-Aspartate, Average (3hr): -1.502
NAD+, Average (3hr): 0.03216
NADH, Average (3hr): -1.72
